Patent US8476255B2, “Histone deacetylase inhibitors” (Orchid Chemicals & Pharmaceuticals Limited, priority 2007, dated 2013)

Tests used:
[1] = test system: NCIH460 (lung) cells; test: Anti-cancer screen (MTT), NCIH460; assay type: cell-based; settings: Homo sapiens, NCI-H460, NCIH460, 48 hours, MTT; for GI50: read-out: Cell growth inhibition NCIH460 (Lung) GI50; for IC (TGI): read-out: Cell growth inhibition NCIH460 (Lung) TGI; for LC50: read-out: Cell growth inhibition NCIH460 (Lung) LC50
Method: (§1) Experimental drugs were screened for anti-cancer activity in three cell lines using five concentrations for each compound. The cell lines —HCT 116 (colon), NCIH460 (lung) and U251 (glioma) were maintained in DMEM containing 10% fetal bovine serum. 96-well microtiter plates are inoculated with cells in 100 μL of cell suspension (5×10^4 cells/mL) for 24 hours at 37° C., 5% CO2, 95% air and 100% relative humidity. A separate plate with these cell lines is also inoculated to determine cell viability before the addition of the compounds (T0).
(§2) Following 24-hours incubation, test compounds were added to the 96 well plates. Each plate contains one of the above cell lines and the following samples in triplicate: five different dilutions (0.01, 0.1, 1, 10 and 100 μM) of four test compounds, appropriate dilutions of a cytotoxic standard and growth medium (untreated) wells. Test compounds were dissolved in DMSO to prepare 20 mM stock solutions on the day of drug addition and serial dilutions were carried out in complete growth medium at 2× strength such that 100 μL added to wells gave final concentrations (0.01, 0.1, 1, 10 and 100 μM) in the well. SAHA was used as standard drug in these experiments.
(§3) For T0 measurement, 24 hours after seeding the cells, 20 μL of 3-(4,5-dimethyl-2-thiazolyl)-2,5-diphenyl-2H-tetrazolium (MTT) solution per well was added to the ‘T0’ plate and incubated for 3 hours at 37° C. in a CO2 incubator. The plate containing cells and test compounds was treated similarly after 48 hours of incubation. After 3 hours of MTT addition, well contents were aspirated carefully followed by addition of 150 μL DMSO per well. Plates were agitated to ensure dissolution of the formazan crystals in DMSO and absorbance was read at 570 nm (A570).
(§4) (Mosmann T. Rapid colorimetric assay for cellular growth and survival: application to proliferation and cytotoxicity assays. J Immunol Methods 1983; 65(1-2): 55-63; Anne Monks et al. Feasibility of high-flux anticancer drug screen using a diverse panel of cultured human tumor cell lines”. JNCI, Vol. 83, No. 11, 1991).

[2] = test system: HCT 116 (colon) cells; test: Anti-cancer screen (MTT), HCT 116; assay type: cell-based; settings: Homo sapiens, HCT-116, HCT116, 48 hours, MTT; for GI50: read-out: Cell growth inhibition HCT116 (Colon) GI50; for CC50: read-out: Cell growth inhibition HCT116 (Colon) LC50; for IC (TGI): read-out: Cell growth inhibition HCT116 (Colon) TGI
Method: as §1, §2, §3, §4

[3] = test system: U251 (glioma) cells; test: Anti-cancer screen (MTT), U251; assay type: cell-based; settings: Homo sapiens, U-251, U251, 48 hours, MTT; for GI50: read-out: Cell growth inhibition U251 (Glioma) GI50; for IC (TGI): read-out: Cell growth inhibition U251 (Glioma) TGI; for LC50 (concentration giving 50% net cell kill relative to the time-zero cell count): read-out: Cell growth inhibition U251 (Glioma) LC50
Method: as §1, §2, §3, §4

[4] = test system: NCIH460, HCT116 and U251 cells; test: Anti-cancer screen, mean GI50 over cell lines; assay type: cell-based; settings: mean over cell lines; read-out: Cell growth inhibition Mean GI50
Method: as §1, §2, §3, §4

[5] = test system: HDAC (Mouse Liver Extract); test: HDAC inhibition assay using Boc-Lys(Ac)-AMC substrate; assay type: biochemical; settings: mouse liver enzyme
Method: Inhibition of HDAC has been implicated to modulate transcription and to induce apoptosis or differentiation in cancer cells. The fluorometric assay provides a fast and fluorescence based method that eliminates radioactivity, extractions or chromatography, as used in traditional assays. The assay is based on two steps. First, the HDAC fluorometric substrate, which comprises an acetylated lysine side chain, is incubated with a sample containing HDAC activity (Mouse Liver Extract). Deacetylation of the substrate sensitizes the substrate, in the second step; treatment with the Trypsin stop solution produces a fluorophore that can be easily analyzed using fluorescence plate reader. Assay was done in 96-well black microplate and total volume of the assay was […]. […] The plate was pre-incubated at 37° C. for 5 minutes. […] The plate was incubated at 37° C. for 30 min. The reaction was stopped by adding 100 μL, of Trypsin stop solution and incubating at 37° C. for 15-30 min. Measuring the fluorescence at excitation wavelength of 360 nm and emission wavelength of 460 nm monitored the release of AMC. Buffer alone and substrate alone served as blank. […] (Dennis Wegener et al, Anal. Biochem, 321, 2003, 202-208).

| SMILES | GI50 [1] [µM] | IC (TGI) [1] [µM] | GI50 [2] [µM] | CC50 [2] [µM] | IC (TGI) [2] [µM] | GI50 [3] [µM] | IC (TGI) [3] [µM] | GI50 [4] [µM] | HDAC inhibition % (1 μM) [5] [%] | HDAC inhibition % (10 μM) [5] [%] | LC50 [1] [µM] | LC50 (concentration giving 50% net cell kill relative to the time-zero cell count) [3] [µM] | IC50 [5] [µM] |
| --- | --- | --- | --- | --- | --- | --- | --- | --- | --- | --- | --- | --- | --- |
| CSc1ccc(/C=C(/C(=O)NCc2ccc(C(=O)Nc3ccccc3N)cc2)c2ccccc2F)cc1 [Compound 24, N-(2-Aminophenyl)-4-((3-(4-methylthiophenyl)-2-(2-fluorophenyl)acrylamido)methyl)benzamide] | 5 | 32 | 3.8 | > 100 | 12 | 8.5 | 30 | 5.8 | 41.3 | 51.4 | – | – | – |
| CSc1ccc(/C=C(/C(=O)NCc2ccc(C(=O)Nc3ccccc3N)cc2)c2ccc(C)cc2)cc1 [Compound 25, N-(2-Aminophenyl)-4-((3-(4-methylthiophenyl)-2-(4-methylphenyl)acrylamido)methyl)benzamide] | 19 | 58 | 7.5 | 90 | 48 | 6.5 | 37 | 11 | 63.8 | 68.1 | 100 | 89 | – |
| CSc1ccc(/C=C(/C(=O)NCc2ccc(C(=O)Nc3ccccc3N)cc2)c2ccsc2)cc1 [Compound 26, N-(2-Aminophenyl)-4-((3-(4-methylthiophenyl)-2-(thiophen-3-yl)acrylamido)methyl)benzamide] | 52 | > 100 | 4 | > 100 | 15 | 50 | 70 | 35.3 | 34.1 | 42.6 | > 100 | > 100 | – |
| COc1ccc(/C=C(/C(=O)NCc2ccc(C(=O)Nc3ccccc3N)cc2)c2ccccc2Cl)cc1OC [Compound 30, N-(2-Aminophenyl)-4-((3-(3,4-dimethoxyphenyl)-2-(2-chlorophenyl)acrylamido)methyl)benzamide] | > 100 | > 100 | 100 | > 100 | > 100 | 1 | > 100 | 50.5 | 7.1 | 30.1 | > 100 | > 100 | – |
| COC(=O)c1ccc(/C=C(/C(=O)NCc2ccc(C(=O)Nc3ccccc3N)cc2)c2cccc(Cl)c2)cc1 [Compound 33, N-(2-Aminophenyl)-4-((3-(4-carbmethoxyphenyl)-2-(3-chlorophenyl)acrylamido)methyl)benzamide] | 0.2 | 11 | 0.02 | 80 | 2 | 0.2 | 0.7 | 0.1 | 34.4 | 35.0 | 60 | 4.5 | 7.8 |
| COC(=O)c1ccc(/C=C(/C(=O)NCc2ccc(C(=O)Nc3ccccc3N)cc2)c2ccccc2F)cc1 [Compound 34, N-(2-Aminophenyl)-4-((3-(4-carbmethoxyphenyl)-2-(2-fluorophenyl)acrylamido)methyl)benzamide] | 10.1 | 90 | 1.8 | > 100 | 13 | 0.7 | 23 | 4.2 | 23.1 | 42.3 | > 100 | 65 | – |
